Results on 21 compounds are retold here after patent US7294625B2, “Pyrazole compounds” (Ube Industries, Ltd., priority 2002, dated 2007).

In the first assay the test system is LPS-induced TNF-α production in human PBMC. Put plainly: Inhibition of TNF-α production in human PBMC (in vitro). The assay is classed as cell-based. The settings on record: LPS 10 μg/ml, 18 hours, TNF-α ELISA, read-out: Inhibitory effect on LPS-induced TNF-α production in human PBMC IC50 value. As for the experimental part:
Test Example 2 Inhibition of TNF-α Production in Human PBMC (In Vitro)
Test was carried out according to the method of Welker et al. (Int. Arch. Allergy Immunol., 109, 110-115 (1996).
Heparin-added blood collected from healthy volunteer with consent was underlayed with a specific gravity-separating solution (Lymphoprep; available from Daiichi Pure Chemicals Co., Ltd.), subjected to centrifugation (800×g, 25 minutes), and a mononuclear cell layer was recovered. The obtained mononuclear cells (human PBMC) were washed twice with PBS (available from SIGMA), and resuspended in 1% FCS-containing RPMI aqueous solution (available from GIBCO) so that the cells became 5×10^6 cells/mL. The thus obtained cell suspension was diluted 10-fold with 1% FCS-containing RPMI medium, DMSO (or the compound to be tested) with a final concentration of 0.5% was added thereto, and cultured at 37° C. in 5% CO2 for 1 hour. After that, LPS (derived from E. Coli 055:5B, available from SIGMA) solution prepared by PBS was added so that the final concentration thereof being 10 μg/ml, and cultivation was carried out for further 18 hours. After the cultivation, culture medium was subjected to centrifugation (800×g, 10 minutes), and a concentration of TNF-α produced in the supernatant was measured by an enzyme-linked immunosorbent assay (ELISA) kit (TNF-α ELISA Kit, available from R&D). The concentration (IC50 value) of the test compound for inhibiting 50% of TNF-α production was calcualted by using XL-fit (available from IDBS).
A general note: In an ELISA, binding on a coated surface is turned into a signal by an enzyme label.
As to `Nc1cc(-c2cn(-c3cc(N)c(=O)[nH]n3)nc2-c2ccc(F)cc2)ccn1` [Example 4, 1-(5-Amino-1,6-dihydro-6-oxopyridazin-3-yl)-4-(2-aminopyridin-4-yl)-3-(4-fluorophenyl)-1H-pyrazole], the IC50 – broadly, the midpoint of a concentration-inhibition curve – was determined as 28 nM.

In the case of `O=c1ccc(-n2cc(-c3ccnc(NCC(F)(F)F)c3)c(-c3ccc(F)cc3)n2)n[nH]1` [Example 28, 3-(4-fluorophenyl)-1-(1,6-dihydro-6-oxopyridazin-3-yl)-4-[2-(2,2,2-trifluoroethyl)aminopyridin-4-yl]-1H-pyrazole], the IC50 was found to be 7 nM.

For `CC(=O)Nc1cc(-c2cn(-c3ccc(=O)[nH]n3)nc2-c2ccccc2F)ccn1` [Example 35, 4-(2-Acetylaminopyridin-4-yl)-3-(2-fluorophenyl)-1-(1,6-dihydro-6-oxopyridazin-3-yl)-1H-pyrazole], the IC50 came out at 6 nM.

Regarding `O=C(Nc1cc(-c2cn(-c3ccc4nncn4n3)nc2-c2ccc(F)cc2)ccn1)C1CC1` [Example 43, 4-(2-Cyclopropylcarbonylaminopyridin-4-yl)-3-(4-fluorophenyl)-1-([1,2,4]triazolo[4,3-b]pyridazin-6-yl)-1H-pyrazole], the IC50 is 14 nM.

Take `Nc1cc(-c2cn(C3=NNC(=O)CC3)nc2-c2ccccc2F)ccn1` [Example 55, 4-(2-Aminopyridin-4-yl)-3-(2-fluorophenyl)-1-(1,4,5,6-tetrahydro-6-oxopyridazin-3-yl)-1H-pyrazole]: the IC50 was 36 nM.

As for `O=C1CCC(n2cc(-c3ccnc(NCC(F)(F)F)c3)c(-c3ccccc3F)n2)=NN1` [Example 61, 3-(2-Fluorophenyl)-1-(1,4,5,6-tetrahydro-6-oxopyridazin-3-yl)-4-[2-(2,2,2-trifluoroethyl)aminopyridin-4-yl]-1H-pyrazole], the IC50 turned out to be 4 nM.

For `O=C1CCC(n2cc(-c3ccnc(NC(=O)C4CC4)c3)c(-c3ccccc3F)n2)=NN1` [Example 65, 4-(2-Cyclopropylcarbonylaminopyridin-4-yl)-3-(2-fluorophenyl)-1-(1,4,5,6-tetrahydro-6-oxopyridazin-3-yl)-1H-pyrazole], the IC50 turned out to be 15 nM.

The next assay concerns cytokine (IL-1β and TNF-α) induced IL-6 production. Put plainly: Inhibition of IL-6 production in rat (in vivo). The following applies: LEW rats, 3 mg/Kg oral, 1 hour before IL-1β/TNF-α i.v., serum IL-6 two hours later. As for the experimental part:
Test Example 3 Inhibition of IL-6 Production in Rat (In Vivo)
A cytokine mixed solution of IL-1β and TNF-α was intravenously injected to rats to induce production of IL-6. A mixed solution of IL-1β (available from R&D) (4 μg/ml) and TNF-α (available from R&D) (2 μg/ml) dissolved in PBS was administered to tail vein of LEW series rats (female, body weight: about 140 to 170 g, available from Charles River Japan, Inc.) fasted overnight with a ratio of 1 ml/kg of the body weight. Two hours later, blood was collected from the neck vein under ether anesthesia. The collected blood was centrifuged under the conditions of 20° C. and 10,000×g to separate serum. IL-6 concentration in the serum was measured by using an enzyme-linked immunosorbent assay (ELISA) kit (IL-6 ELISA KIT, available from R&D).
The test compound or the vehicle was orally administered with a dose of 10 ml/kg of the body weight before 1 hour of the injection of the cytokine mixed solution. The control group to which the vehicle was administered and the group of the compound to be tested were each 5 rats per group. An inhibitory ratio of the group of the compound to be tested based on control group was calculated.
Turning to `CNc1cc(-c2cn(-c3ccc(=O)[nH]n3)nc2-c2ccc(F)cc2)ccn1` [Example 3, 3-(4-Fluorophenyl)-1-(1,6-dihydro-6-oxopyridazin-3-yl)-4-(2-methylaminopyridin-4-yl)-1H-pyrazole], the “Rat cytokine induced IL-6 production inhibiting ratio (%) @3 mg/Kg” value was 81%.

The target in a further assay is T1, p38MAP kinase (Homo sapiens, UniProt Q16539).
T1 construct: purchased Stratagene (p38MAP kinase); Upstate (SKK/MKK6) #206145 (p38MAP kinase); #14-225 or #14-303 (SKK/MKK6)
T1 sequence (Q16539 whole entry): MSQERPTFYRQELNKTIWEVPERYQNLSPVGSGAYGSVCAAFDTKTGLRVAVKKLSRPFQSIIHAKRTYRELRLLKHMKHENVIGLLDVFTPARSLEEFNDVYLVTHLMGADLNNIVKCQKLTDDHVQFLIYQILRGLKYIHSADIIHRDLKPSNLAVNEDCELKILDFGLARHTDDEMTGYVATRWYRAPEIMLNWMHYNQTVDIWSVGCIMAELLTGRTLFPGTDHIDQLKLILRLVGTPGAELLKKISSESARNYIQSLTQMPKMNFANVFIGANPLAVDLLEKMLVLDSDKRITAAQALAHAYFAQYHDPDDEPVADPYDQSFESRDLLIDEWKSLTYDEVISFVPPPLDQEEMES
Put plainly: Enzyme inhibitory test against p38MAP kinase. The assay is classed as biochemical. The settings on record: active type p38MAP kinase, EGFR peptide substrate, [γ-32P]ATP, 30° C. 30 minutes; read-out: p38MAP kinase inhibition IC50 value. The procedure:
Test Example 1 Enzyme Inhibitory Test Against p38MAP Kinase
(1) Preparatoin of Active Type p38MAP Kinase
An active type p38MAP kinase was prepared by incubation in a reaction solution (25 mM Tris-HCl pH 7.5, 5 mM β-glycerolphosphate, 2 mM DTT, 0.1 mM […], 10 mM MgCl2, 1 mM ATP) containing p38MAP kinase (Stratagene, #206145) and SKK/MKK6 (Upstate, #14-225 or #14-303) at 30° C. for 1 to 3 hours. This enzyme solution was diluted 5 to 10-fold with Stock Buffer (50 mM Tris-HCl pH 7.5, 0.1 mM EGTA, 0.2 mM Orthovanadate, 0.1% 2-ME, 10% glycerol, 0.03% Brij-35, 0.5 μM Microcystin), and preserved under freezing (−80° C.).
(2) Measurement of Inhibitory Activity of p38MAP Kinase
To 34 μL of a reaction solution (25 mM HEPES, pH 7.5, 10 mM Magnesium acetate) containing the active type p38MAP kinase prepared as mentioned above and a substrate (final concentration: […] EGFR; […]) was added 1 μL of DMSO, or a compound to be tested and dissolved in DMSO, then, the mixture was subjected to preincubation at 4° C. for 30 minutes. A reaction was started by adding 5 μL of an ATP solution (400 μM ATP, 1 μCi/μL [γ-^32P]ATP), and reacted at 30° C. for 30 minutes, and then, the reaction was stopped by adding 5 μL of 250 mM H3PO4. 25 μL of the reaction solution was placed on chromatography paper (Whatman, #P81), dried for about 2 minutes, and washed with 75 mM H3PO4. Water was removed by using 95% ethanol, it was transferred to a bial containing liquid scintillation cocktail (available from Nacalai Tesque), and radioactivity was measured. A concentration (IC50 value) of a compound to be tested necessary for inhibiting 50% of phosphrylation (^32P) of the substrate by the enzyme was calculated as compared to that non-treated by the compound to be tested by XL-fit (available from IDBS).
`O=c1ccc(-n2cc(-c3ccncc3)c(-c3ccc(F)cc3)n2)n[nH]1` [Example 1, 3-(4-Fluorophenyl)-1-(1,6-dihydro-6-oxopyridazin-3-yl)-4-(pyridin-4-yl)-1H-pyrazole]: the 50% inhibitory concentration (IC50) was found to be 8.9 nM.

On to `Nc1cc(-c2cn(-c3cc(N)c(=O)[nH]n3)nc2-c2ccc(F)cc2)ccn1` [Example 4, 1-(5-Amino-1,6-dihydro-6-oxopyridazin-3-yl)-4-(2-aminopyridin-4-yl)-3-(4-fluorophenyl)-1H-pyrazole], for which the IC50 is 2.5 nM.

With `CC(=O)Nc1cc(-c2cn(-c3ccc4nncn4n3)nc2-c2ccc(F)cc2)ccn1` [Example 9, 4-(2-Acetylaminopyridin-4-yl)-3-(4-fluorophenyl)-1-([1,2,4]triazolo[4,3-b]pyridazin-6-yl)-1H-pyrazole], the IC50 worked out at 5.4 nM.

On to `COC(=O)Nc1cc(-c2cn(-c3ccc4nncn4n3)nc2-c2ccc(F)cc2)ccn1` [Example 11, 3-(4-Fluorophenyl)-4-(2-methoxycarbonylaminopyridin-4-yl)-1-([1,2,4]triazolo[4,3-b]pyridazin-6-yl)-1H-pyrazole], for which the IC50 is 6.1 nM.

`CC(Nc1cc(-c2cn(-c3ccc4nncn4n3)nc2-c2ccc(F)cc2)ccn1)c1ccccc1` (stereo not shown) [Example 18, 3-(4-Fluorophenyl)-4-[2-(1-phenethylamino)pyridin-4-yl]-1-([1,2,4]triazolo[4,3-b]pyridazin-6-yl)-1H-pyrazole]: the IC50 is 3.7 nM.

Take `Nc1cc(-c2cn(-c3ccc(=O)[nH]n3)nc2-c2cccc(F)c2)ccn1` [Example 22, 4-(2-Aminopyridin-4-yl)-3-(3-fluorophenyl)-1-(1,6-dihydro-6-oxopyridazin-3-yl)-1H-pyrazole]: the IC50 is 6.6 nM.

With `Nc1cc(-c2cn(-c3ccc(=O)[nH]n3)nc2-c2cccc(C(F)(F)F)c2)ccn1` [Example 25, 4-(2-Aminopyridin-4-yl)-1-(1,6-dihydro-6-oxopyridazin-3-yl)-3-(3-trifluoromethylphenyl)-1H-pyrazole], the IC50 stood at 5.9 nM.

In the case of `CCNc1cc(-c2cn(-c3ccc(=O)[nH]n3)nc2-c2ccc(F)cc2)ccn1` [Example 27, 4-(2-Ethylaminopyridin-4-yl)-3-(4-fluorophenyl)-1-(1,6-dihydro-6-oxopyridazin-3-yl)-1H-pyrazole], the IC50 turned out to be 1.3 nM.

Turning to `Cc1cc(-n2cc(-c3ccnc(N)c3)c(-c3ccc(F)cc3)n2)n[nH]c1=O` [Example 32, 4-(2-Aminopyridin-4-yl)-3-(4-fluorophenyl)-1-(1,6-dihydro-5-methyl-6-oxopyridazin-3-yl)-1H-pyrazole], the IC50 worked out at 3.4 nM.

With `O=c1ccc(-n2cc(-c3ccnc(NCC(F)(F)F)c3)c(-c3ccccc3F)n2)n[nH]1` [Example 34, 3-(2-Fluorophenyl)-1-(1,6-dihydro-6-oxopyridazin-3-yl)-4-[2-(2,2,2-trifluoroethyl)aminopyridin-4-yl]-1H-pyrazole], the IC50 came out at 0.2 nM.

On to `Nc1cc(-c2cn(-c3ccc4nncn4n3)nc2-c2ccc(F)c(F)c2)ccn1` [Example 40, 4-(2-Aminopyridin-4-yl)-3-(3,4-difluorophenyl)-1-([1,2,4]triazolo[4,3-b]pyridazin-6-yl)-1H-pyrazole], for which the IC50 was 8.7 nM.

With `O=C(Nc1cc(-c2cn(-c3ccc4nncn4n3)nc2-c2ccc(F)cc2)ccn1)C1CCCC1` [Example 45, 4-(2-Cyclopentylcarbonylaminopyridin-4-yl)-3-(4-fluorophenyl)-1-([1,2,4]triazolo[4,3-b]pyridazin-6-yl)-1H-pyrazole], the IC50 was 4.9 nM.

`CC(=O)Nc1cc(-c2cn(C3=NNC(=O)CC3)nc2-c2ccc(F)cc2)ccn1` [Example 57, 4-(2-Acetylaminopyridin-4-yl)-3-(4-fluorophenyl)-1-(1,4,5,6-tetrahydro-6-oxopyridazin-3-yl)-1H-pyrazole]: the IC50 was found to be 2.1 nM.

With `CC(=O)Nc1cc(-c2cn(C3=NNC(=O)CC3)nc2-c2ccccc2F)ccn1` [Example 62, 4-(2-Acetylaminopyridin-4-yl)-3-(2-fluorophenyl)-1-(1,4,5,6-tetrahydro-6-oxopyridazin-3-yl)-1H-pyrazole], the IC50 worked out at 1.3 nM.
